Test results published in ChEMBL document CHEMBL1201861, “Genomics of Drug Sensitity in Cancer screening data, Wellcome Trust Sanger Institute”.
pIC50: −log10 of the molar value.

Assays:
[1] = tested on: OPM-2; test: cells; type: functional, cell-based, Homo sapiens; details: Homo sapiens, OPM-2;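 further: growth of OPM-2 cells measured with a viability assay, IC50 for suppression of proliferation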
Description: SANGER: Inhibition of human OPM-2 cell growth in a cell viability assay.

[2] = tested on: MONO-MAC-6; test: cells; type: functional, cell-based, Homo sapiens; details: Homo sapiens, MONO-MAC-6;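 further: cell viability assay measuring growth inhibition of human MONO-MAC-6 cells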
Description: SANGER: Inhibition of human MONO-MAC-6 cell growth in a cell viability assay.

[3] = tested on: BL-41; test: cells; type: functional, cell-based, Homo sapiens; details: Homo sapiens, BL-41;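 further: growth inhibition of human BL-41 cells, read out with a cell viability assay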
Description: SANGER: Inhibition of human BL-41 cell growth in a cell viability assay.

[4] = tested on: TE-15; test: cells; type: functional, cell-based, Homo sapiens; details: Homo sapiens, TE-15;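 further: cell viability readout of growth inhibition in TE-15 cells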
Description: SANGER: Inhibition of human TE-15 cell growth in a cell viability assay.

[5] = tested on: ECC4; test: cells; type: functional, cell-based, Homo sapiens; details: Homo sapiens, ECC4;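 further: growth inhibition of ECC4 cells, read out with a cell viability assay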
Description: SANGER: Inhibition of human ECC4 cell growth in a cell viability assay.

[6] = tested on: BL-70; test: SANGER: Inhibition of human BL-70 cell growth in a cell viability assay.; type: functional, cell-based; details: Homo sapiens, BL-70
[7] = tested on: NCI-H1522; test: cells; type: functional, cell-based, Homo sapiens; details: Homo sapiens, NCI-H1522;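 further: growth inhibition of NCI-H1522 cells, read out with a cell viability assay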
Description: SANGER: Inhibition of human NCI-H1522 cell growth in a cell viability assay.

[8] = tested on: CESS; test: SANGER: Inhibition of human CESS cell growth in a cell viability assay.; type: functional, cell-based; details: Homo sapiens, CESS
[9] = tested on: SIMA; test: cells; type: functional, cell-based, Homo sapiens; details: Homo sapiens, SIMA;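 further: growth inhibition of SIMA cells, measured with a cell viability readout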
Description: SANGER: Inhibition of human SIMA cell growth in a cell viability assay.

[10] = tested on: HCC1599; test: cells; type: functional, cell-based, Homo sapiens; details: Homo sapiens, HCC1599;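 further: growth inhibition of HCC1599 cells, read out in a cell viability assay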
Description: SANGER: Inhibition of human HCC1599 cell growth in a cell viability assay.

[11] = tested on: MDA-MB-134-VI; test: cells; type: functional, cell-based, Homo sapiens; details: Homo sapiens, MDA-MB-134-VI
Description: SANGER: Inhibition of human MDA-MB-134-VI cell growth in a cell viability assay.

[12] = tested on: GMS-10; test: cells; type: functional, cell-based, Homo sapiens; details: Homo sapiens, GMS-10;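 further: growth inhibition of GMS-10 cells, read out as cell viability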
Description: SANGER: Inhibition of human GMS-10 cell growth in a cell viability assay.

[13] = tested on: DU-145; test: cells; type: functional, cell-based, Homo sapiens; details: Homo sapiens, DU-145
Description: SANGER: Inhibition of human DU-145 cell growth in a cell viability assay.

[14] = tested on: LK-2; test: cells; type: functional, cell-based, Homo sapiens; details: Homo sapiens, LK-2;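 further: growth inhibition of LK-2 cells, read out with a viability assay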
Description: SANGER: Inhibition of human LK-2 cell growth in a cell viability assay.

[15] = tested on: NCI-H1693; test: cells; type: functional, cell-based, Homo sapiens; details: Homo sapiens, NCI-H1693;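 further: growth inhibition of the human cell line, read out with a cell viability assay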
Description: SANGER: Inhibition of human NCI-H1693 cell growth in a cell viability assay.

[16] = tested on: SJRH30; test: cells; type: functional, cell-based, Homo sapiens; details: Homo sapiens, SJRH30;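 further: growth inhibition of human SJRH30 cells, read out with a cell viability assay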
Description: SANGER: Inhibition of human SJRH30 cell growth in a cell viability assay.

[17] = tested on: KYSE-450; test: cells; type: functional, cell-based, Homo sapiens; details: Homo sapiens, KYSE-450;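 further: cell growth inhibition measured by a viability assay in human KYSE-450 cells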
Description: SANGER: Inhibition of human KYSE-450 cell growth in a cell viability assay.

[18] = tested on: CWR22R; test: cells; type: functional, cell-based, Homo sapiens; details: Homo sapiens, 22Rv1;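 further: growth inhibition of 22Rv1 cells, read out with a cell viability assay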
Description: SANGER: Inhibition of human 22RV1 cell growth in a cell viability assay.

[19] = tested on: PA-1; test: cells; type: functional, cell-based, Homo sapiens; details: Homo sapiens, PA-1;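 further: IC50 for suppression of PA-1 cell proliferation, determined with a cell viability read-out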
Description: SANGER: Inhibition of human PA-1 cell growth in a cell viability assay.

[20] = tested on: 769-P; test: cells; type: functional, cell-based, Homo sapiens; details: Homo sapiens, 769-P
Description: SANGER: Inhibition of human 769-P cell growth in a cell viability assay.

[21] = tested on: M14; test: cells; type: functional, cell-based, Homo sapiens; details: Homo sapiens, M14;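 further: growth inhibition of M14 cells, read out with a cell viability assay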
Description: SANGER: Inhibition of human M14 cell growth in a cell viability assay.

[22] = tested on: Ca9-22; test: cells; type: functional, cell-based, Homo sapiens; details: Homo sapiens, Ca9-22;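 further: growth inhibition of Ca9-22 cells, read out with a cell viability assay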
Description: SANGER: Inhibition of human Ca9-22 cell growth in a cell viability assay.

[23] = tested on: MeWo; test: cells; type: functional, cell-based, Homo sapiens; details: Homo sapiens, MeWo;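 further: growth inhibition of MeWo cells, determined by a cell viability readout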
Description: SANGER: Inhibition of human Mewo cell growth in a cell viability assay.

[24] = tested on: HCC1937; test: cells; type: functional, cell-based, Homo sapiens; details: Homo sapiens, HCC1937;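 further: growth inhibition measured with a cell viability read-out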
Description: SANGER: Inhibition of human HCC1937 cell growth in a cell viability assay.

[25] = tested on: MDA-MB-231; test: cells; type: functional, cell-based, Homo sapiens; details: Homo sapiens, MDA-MB-231
Description: SANGER: Inhibition of human MDA-MB-231 cell growth in a cell viability assay.

[26] = tested on: CAL-39; test: cells; type: functional, cell-based, Homo sapiens; details: Homo sapiens, CAL-39;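 further: cell viability assay measuring growth inhibition of CAL-39 cells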
Description: SANGER: Inhibition of human CAL-39 cell growth in a cell viability assay.

[27] = tested on: LCLC-103H cell line; test: cells; type: functional, cell-based, Homo sapiens; details: Homo sapiens, LCLC-103H
Description: SANGER: Inhibition of human LCLC-103H cell growth in a cell viability assay.

[28] = tested on: SW780; test: cells; type: functional, cell-based, Homo sapiens; details: Homo sapiens, SW780;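 further: growth inhibition of the cells, read out with a cell viability assay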
Description: SANGER: Inhibition of human SW780 cell growth in a cell viability assay.

[29] = tested on: HuP-T3; test: cells; type: functional, cell-based, Homo sapiens; details: Homo sapiens, HuP-T3;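 further: HuP-T3 cell growth inhibition, read out with a cell viability assay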
Description: SANGER: Inhibition of human HuP-T3 cell growth in a cell viability assay.

[30] = tested on: NCI-H1623; test: cells; type: functional, cell-based, Homo sapiens; details: Homo sapiens, NCI-H1623;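 further: cell viability assay used as the read-out for growth inhibition of NCI-H1623 cells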
Description: SANGER: Inhibition of human NCI-H1623 cell growth in a cell viability assay.

[31] = tested on: SK-HEP1; test: cells; type: functional, cell-based, Homo sapiens, SK-HEP-1; details: Homo sapiens, SK-HEP1;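 further: cell viability readout used to quantify reduction in proliferation of human SK-HEP-1 cells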
Description: SANGER: Inhibition of human SK-HEP-1 cell growth in a cell viability assay.

[32] = tested on: SK-MEL-30; test: cells; type: functional, cell-based, Homo sapiens; details: Homo sapiens, SK-MEL-30;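 further: growth inhibition of SK-MEL-30 cells, determined with a cell viability assay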
Description: SANGER: Inhibition of human SK-MEL-30 cell growth in a cell viability assay.

[33] = tested on: NCI-H1793; test: cells; type: functional, cell-based, Homo sapiens; details: Homo sapiens, NCI-H1793;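 further: cell growth inhibition, read out by a cell viability assay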
Description: SANGER: Inhibition of human NCI-H1793 cell growth in a cell viability assay.

[34] = tested on: CHP-212; test: cells; type: functional, cell-based, Homo sapiens; details: Homo sapiens, CHP-212
Description: SANGER: Inhibition of human CHP-212 cell growth in a cell viability assay.

[35] = tested on: SK-MEL-24; test: cells; type: functional, cell-based, Homo sapiens; details: Homo sapiens, SK-MEL-24;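 further: growth inhibition read out by a cell viability assay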
Description: SANGER: Inhibition of human SK-MEL-24 cell growth in a cell viability assay.

[36] = tested on: GP5d; test: cells; type: functional, cell-based, Homo sapiens; details: Homo sapiens, GP5d;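 further: growth inhibition of human GP5d cells, read out with a cell viability assay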
Description: SANGER: Inhibition of human GP5d cell growth in a cell viability assay.

[37] = tested on: KYSE-140; test: cells; type: functional, cell-based, Homo sapiens; details: Homo sapiens, KYSE-140;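 further: cell viability assay measuring growth inhibition in human KYSE-140 cells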
Description: SANGER: Inhibition of human KYSE-140 cell growth in a cell viability assay.

[38] = tested on: EFM-19; test: cells; type: functional, cell-based, Homo sapiens; details: Homo sapiens, EFM-19;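 further: growth inhibition of human EFM-19 cells, measured in a cell viability assay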
Description: SANGER: Inhibition of human EFM-19 cell growth in a cell viability assay.

[39] = tested on: CAL-27; test: cells; type: functional, cell-based, Homo sapiens; details: Homo sapiens, CAL-27;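 further: Viability-based readout, IC50 reflecting inhibition of CAL-27 cell growth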
Description: SANGER: Inhibition of human CAL-27 cell growth in a cell viability assay.

[40] = tested on: CAL-62; test: cells; type: functional, cell-based, Homo sapiens; details: Homo sapiens, CAL-62;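 further: growth inhibition of CAL-62 cells, read out with a cell viability assay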
Description: SANGER: Inhibition of human CAL-62 cell growth in a cell viability assay.

[41] = tested on: WM-115; test: cells; type: functional, cell-based, Homo sapiens; details: Homo sapiens, WM-115
Description: SANGER: Inhibition of human WM-115 cell growth in a cell viability assay.

[42] = tested on: MIA PaCa-2; test: cells; type: functional, cell-based, Homo sapiens; details: Homo sapiens, MIA PaCa-2;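 further: growth inhibition of MIA PaCa-2 cells, read out with a cell viability assay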
Description: SANGER: Inhibition of human MIA-PaCa-2 cell growth in a cell viability assay.

[43] = tested on: CAL-51; test: cells; type: functional, cell-based, Homo sapiens; details: Homo sapiens, CAL-51;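 further: human CAL-51 cell line, growth inhibition read out via a cell viability assay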
Description: SANGER: Inhibition of human CAL-51 cell growth in a cell viability assay.

[44] = tested on: MG-63; test: cells; type: functional, cell-based, Homo sapiens; details: Homo sapiens, MG-63;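 further: growth inhibition of human MG-63 cells, read out with a cell viability assay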
Description: SANGER: Inhibition of human MG-63 cell growth in a cell viability assay.

[45] = tested on: HEC-1; test: cells; type: functional, cell-based, Homo sapiens; details: Homo sapiens, HEC-1;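 further: growth inhibition of the cell line, read out with a cell viability assay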
Description: SANGER: Inhibition of human HEC-1 cell growth in a cell viability assay.

[46] = tested on: A673; test: cells; type: functional, cell-based, Homo sapiens; details: Homo sapiens, A673;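 further: growth inhibition of human A673 cells, read out through a cell viability assay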
Description: SANGER: Inhibition of human A673 cell growth in a cell viability assay.

[47] = tested on: HGC-27; test: cells; type: functional, cell-based, Homo sapiens; details: Homo sapiens, HGC-27;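 further: growth inhibition of human HGC-27 cells, read out in a cell viability assay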
Description: SANGER: Inhibition of human HGC-27 cell growth in a cell viability assay.

Molecule `COc1cc2ncn(-c3cc(OCc4ccccc4C(F)(F)F)c(C(N)=O)s3)c2cc1OC` [GW843682X] has a pIC50 [1] of 7.35, a pIC50 [2] of 7.46 and a pIC50 [3] of 7.96. It also gave a pIC50 [4] of 7.97, a pIC50 [5] of under 6.59 and a pIC50 [6] of 8.07. It also gave a pIC50 [7] of under 6.59, a pIC50 [8] of 7.88 and a pIC50 [9] of under 6.59. For the same molecule, the pIC50 [10] was 7.73 and the pIC50 [11] was under 6.59.
Work on `CCC/C=C/C=C/C(=O)O[C@H]1/C(=C/C(=O)OC)C[C@H]2C[C@H]([C@@H](C)O)OC(=O)C[C@H](O)C[C@@H]3C[C@H](OC(C)=O)C(C)(C)[C@](O)(C[C@@H]4C/C(=C/C(=O)OC)C[C@H](/C=C/C(C)(C)[C@]1(O)O2)O4)O3` [BRYOSTATIN 1] yielded a pIC50 [12] of under 8.10, a pIC50 [13] of under 8.10 and a pIC50 [14] of under 8.10. The pIC50 [1] was under 8.10, the pIC50 [2] was under 8.10 and the pIC50 [15] was under 8.10. The pIC50 [16] was under 8.10, the pIC50 [17] was under 8.10 and the pIC50 [18] was under 8.10. The pIC50 [19] was under 8.10, the pIC50 [20] was under 8.10 and the pIC50 [21] was under 8.10. The pIC50 [22] was under 8.10, the pIC50 [3] was under 8.10 and the pIC50 [4] was under 8.10. The pIC50 [23] was under 8.10, the pIC50 [24] was under 8.10 and the pIC50 [25] was under 8.10. For the same molecule, the pIC50 [26] was under 8.10, the pIC50 [27] was under 8.10 and the pIC50 [28] was under 8.10. It also gave a pIC50 [29] of under 8.10, a pIC50 [30] of under 8.10 and a pIC50 [31] of under 8.10. For the same molecule, the pIC50 [5] was under 8.10, the pIC50 [32] was under 8.10 and the pIC50 [33] was under 8.10. For the same molecule, the pIC50 [34] was under 8.10, the pIC50 [35] was under 8.10 and the pIC50 [6] was under 8.10. For the same molecule, the pIC50 [36] was under 8.10, the pIC50 [37] was under 8.10 and the pIC50 [38] was under 8.10. The pIC50 [39] was under 8.10, the pIC50 [7] was under 8.10 and the pIC50 [40] was under 8.10. It also gave a pIC50 [41] of under 8.10, a pIC50 [8] of under 8.10 and a pIC50 [42] of under 8.10. It also gave a pIC50 [43] of under 8.10, a pIC50 [44] of under 8.10 and a pIC50 [9] of under 8.10. It also gave a pIC50 [10] of under 8.10, a pIC50 [11] of under 8.10 and a pIC50 [45] of under 8.10. It also gave a pIC50 [46] of under 8.10 and a pIC50 [47] of under 8.10.
`Cc1ccc(-c2c(C(=O)CCl)n(CCCO)c3ncnc(N)c23)cc1` gave a pIC50 [1] of under 5.40, a pIC50 [2] of 5.41 and a pIC50 [3] of under 5.40. It also gave a pIC50 [4] of 5.74, a pIC50 [5] of under 5.40 and a pIC50 [6] of under 5.40. It also gave a pIC50 [7] of under 5.40, a pIC50 [8] of under 5.40 and a pIC50 [9] of under 5.40. The pIC50 [10] was 5.66 and the pIC50 [11] was under 5.40.
Molecule `C#Cc1cccc(Nc2ncnc3cc(OCCOC)c(OCCOC)cc23)c1` [ERLOTINIB] has a pIC50 [1] of under 5.70, a pIC50 [2] of under 5.70 and a pIC50 [3] of under 5.70. The pIC50 [4] was under 5.70, the pIC50 [5] was under 5.70 and the pIC50 [6] was under 5.70. The pIC50 [8] was under 5.70, the pIC50 [9] was under 5.70 and the pIC50 [10] was under 5.70.
In the case of `COc1cc2ncn(-c3cc(OCc4ccccc4S(C)(=O)=O)c(C#N)s3)c2cc1OC` [GSK-319347A], the pIC50 [1] was under 5.30, the pIC50 [2] was under 5.30 and the pIC50 [3] was under 5.30. For the same molecule, the pIC50 [4] was under 5.30, the pIC50 [5] was under 5.30 and the pIC50 [6] was under 5.30. The pIC50 [7] was under 5.30, the pIC50 [8] was under 5.30 and the pIC50 [9] was under 5.30. The pIC50 [10] was under 5.30 and the pIC50 [11] was under 5.30.
With `COc1cc(-c2nn([C@H]3CC[C@H](N4CCN(C(C)=O)CC4)CC3)c3ncnc(N)c23)ccc1NC(=O)c1cc2ccccc2n1C` the pIC50 [1] was under 5.29, the pIC50 [2] was under 5.29 and the pIC50 [3] was 5.77. It also gave a pIC50 [4] of 6.55, a pIC50 [5] of under 5.29 and a pIC50 [6] of over 7.70. The pIC50 [7] was under 5.29, the pIC50 [8] was under 5.29 and the pIC50 [9] was under 5.29. The pIC50 [10] was under 5.29 and the pIC50 [11] was under 5.29.
